Assays:
CAR T cells [1] = conditions: in vitro expansion; inhibitor washed out before adoptive transfer; cited from earlier work
CAR T cells [2] = assay: T cell exhaustion markers TIM3 and LAG3 on CAR T cells in co-culture (flow cytometry); assay type: cell-based, human; conditions: CAR T:tumour cell co-culture, concentrations of Table 2; for number of LAG3+ CAR T cells: Ralimetinib 5 μM results to be disregarded
Experimental: (§1) UR-13870, Ralimetinib or Acumapimod are each added to a culture of CD19+ cancer cells (using a micropipette to transfer the correct volume to achieve the desired final concentration in Table 2).
(§2) CAR T cells are then added to the same culture 5-10 minutes later. In brief, CAR T cell concentrations per ml are determined and used to aliquot the desired number of CAR T cells into the culture to achieve the described 1:1 CAR T to cancer cell ratio.
(§3) The co-culture containing CAR T cells and tumour cells is swirled gently to ensure homogenous dispersion of cells throughout the vessel. The resultant co-culture is incubated for 24 to 96 hours in a closed incubator at 37° C. with 5% CO2 and a suitably humid atmosphere.
Both T cell surface markers T cell immunoglobulin and mucin domain-containing protein 3 (TIM3/CD366) and Lymphocyte Activation Gene 3 (LAG3/CD223) are associated with T cell exhaustion and disease progression during immunotherapy treatment. Advantageously, all of UR-13870, Ralimetinib and Acumapimod reduce both the number of TIM3+ CAR T cells, and the number of LAG3+ CAR T cells. […] For LAG3+, the results for Ralimetinib at a 5 μM concentration appear to have been affected by experimental failure, and these may be disregarded accordingly.

HUVEC endothelial cells [3] = assay: IL-6 and IL-8 ELISA of HUVEC cells treated with sCART-mono supernatant; assay type: cell-based, human; conditions: 24 hr, concentrations of Table 2
Experimental: (§4) With reference to FIG. 13 of the accompanying drawings, a co-culture (100) is established using a standard cell culture transwell dish, including a first compartment (101), containing CAR T cells and cancer cells (at a 1:1 ratio), which is separated from a second compartment (102), containing monocytes, by a semi-permeable membrane (103) composed of tissue-culture treated polyethylene terephthalate with a 0.4 μm pore size.
(§5) Each of UR-13870, Acumapimod and Ralimetinib are administered to the co-culture following a procedure analogous to that described in Example 2 above (at the concentrations as shown in Table 2 above).
(§6) The co-culture is incubated at 37° C., 5% CO2 and a suitably humid environment for 24 hours. On completion, the transwell insert is removed and supernatant is isolated. Cells and debris are removed from the supernatant by exposing the container to a centripetal force of 400 G and gently pipetting the supernatant into a new container without disturbing the cell pellet at the bottom of the previous container.
(§7) Prior to adding the p38 inhibitors and sCART-mono, endothelial cells are incubated overnight at 37° C. and 5% CO2 in a suitably humid environment to allow the cells to adhere fully to the tissue culture dish.
Supernatant levels of IL-6 and IL-8 are determined following 24 hr treatment with sCART-mono and the p38 MAPK inhibitors by ELISA.

CAR T cells [4] = assay: CAR T cell proliferation in CAR T cell:cancer cell co-culture (Cell Trace Violet, flow cytometry); assay type: cell-based, human; conditions: CAR T:tumour cell co-culture 1:1; concentrations of Table 2
Experimental: CAR T cell proliferation is confirmed by Cell Trace™ Violet staining of CAR T cells (staining agent having been added prior to addition of the T cells to the co-cultures with tumour cells). Staining may be observed, following co-culture, via flow cytometry.
as §1, §2, §3

HUVEC endothelial cells [5] = assay: QPCR of VCAM1, ICAM1 and IL-6 in HUVEC cells treated with sCAR; assay type: cell-based, human; conditions: 24 hours
Experimental: (§8) In like manner and also in Example 3 below, sCAR (or smCAR) is added to endothelial (HUVEC) cells, available from the American Type Culture Collection, and using an equivalent protocol to the treatment of THP-1 cells (but with individually optimised conditions, such as the concentration of sCAR used), following which IL-6 release and IL-8 release are observed. Pro-inflammatory cytokines IL-6 and IL-8 are measured using an enzyme-linked immunosorbent assay (ELISA) and IL-6, ICAM1 and VCAM1 are measured by quantitative PCR (QPCR, for which a kit is suitably obtainable from Thermo Fisher Scientific of Kingfisher Dr, Swindon SN3 5BZ, UK).
(§9) sCAR (or smCAR), produced as described in Example 1 above, is added to a monoculture of HUVEC endothelial cells in the presence of UR-13870, Ralimetinib or Acumapimod at each of the concentrations shown in Table 2 above, at 37° C., 5% CO2 and a suitably humid environment for 24 hours.

CAR T cells [6] = assay: TNFα immunosorbent assay of CAR T:tumour cell co-culture supernatant; assay type: cell-based, human
Experimental: as §1, §2, §3
Cytokine release by T cells is also quantified by TNFα enzyme-based immunosorbent assays of co-culture supernatant, as shown in FIG. 9. Ralimetinib and Acumapimod reduced TNF-α secretion following treatment. Data for UR-13870 were discarded due to failures in the UR-13870 experimental procedure.

HUVEC endothelial cells [7] = assay: IL-6 and IL-8 ELISA of HUVEC endothelial cells treated with sCAR; assay type: cell-based, human; conditions: sCAR stimulation, 24 hours; concentrations of Table 2
Experimental: as §8, §9
Supernatant levels of IL-6 and IL-8 from the HUVEC endothelial cell monoculture with sCAR (or smCAR) are determined by ELISA.

HUVEC endothelial cells [8] = assay: QPCR of ICAM1 in HUVEC cells treated with sCART-mono supernatant; assay type: cell-based, human; conditions: 24 hours
Experimental: as §4, §5, §6, §7
Reduced endothelial cell activation is evidenced by reduced ICAM1 expression in response to treatment with UR-13870, Acumapimod and Ralimetinib.

CD19+ cancer cells = assay: CAR T cell killing of tumour cells in 24-hour co-culture (flow cytometry); assay type: cell-based, human; conditions: high dose only, CAR T to cancer cell ratio 1:1
Description: Raji immortalized human B cell line CD19-expressing cancer cells (available from the American Type Culture Collection) are acquired and stable transfection of the Raji cell line is generated with an mCherry reporter protein to facilitate identification of the cancer cells within co-cultures by detection of the mCherry protein fluorescence by flow cytometry.
as §1, §2, §3
Tumour cell death is observed by examining relative CAR T cell:tumour cell numbers by flow cytometry following 24 hour co-culture, as shown in FIG. 7.

THP-1 monocytes = assay: IL-6 ELISA of THP-1 monocytes treated with sCAR; assay type: cell-based, human; conditions: sCAR stimulation, 24 hours; concentrations of Table 2
Experimental: In Example 3 below, sCAR (or smCAR) is added using a micropipette to an in vitro culture of monocyte cells of the human monocytic cell line THP-1, available from the American Type Culture Collection. The culture is incubated in a closed incubator at 37° C. with 5% CO2 and a suitably humid atmosphere for approximately 24 hours, following which cytokine release is observed. p38 MAPK activation and cytokine release are confirmed by evaluation of the presence of IL-6 in THP-1 cells using an enzyme-linked immunosorbent assay (ELISA; for which a kit is suitably obtainable from Thermo Fisher Scientific of Kingfisher Dr, Swindon SN3 5BZ, UK).
(i) Monocytes sCAR (or smCAR), produced as described in Example 1 above, is added to a monoculture of THP-1 monocytes in the presence of UR-13870, Ralimetinib or Acumapimod at each of the concentrations shown in Table 2 above at 37° C., 5% CO2 and a suitably humid environment for 24 hours.
Supernatant levels of IL-6 from the THP-1 monocyte monoculture with sCAR (or smCAR) are determined by ELISA.

| SMILES | CAR T cell phenotypes (CAR T cells [1]) | number of TIM3+ CAR T cells (CAR T cells [2]) | number of LAG3+ CAR T cells (CAR T cells [2]) | IL-6 levels in supernatant (HUVEC endothelial cells [3]) | IL-8 levels in supernatant (HUVEC endothelial cells [3]) | CAR T cell proliferation (Cell Trace Violet staining) (CAR T cells [4]) | ICAM1 mRNA levels (HUVEC endothelial cells [5]) | IL-6 mRNA levels (HUVEC endothelial cells [5]) | VCAM1 mRNA levels (HUVEC endothelial cells [5]) | TNF-α secretion (co-culture supernatant) (CAR T cells [6]) | IL-6 secretion by HUVEC cells (HUVEC endothelial cells [7]) | IL-8 supernatant level, HUVEC cells (HUVEC endothelial cells [7]) | ICAM1 expression (endothelial cell activation) (HUVEC endothelial cells [8]) | CAR T cell-induced cancer cell death (percentage of residual tumour cells in the co-culture) (CD19+ cancer cells) | IL-6 secretion by THP-1 monocytes (THP-1 monocytes) |
| --- | --- | --- | --- | --- | --- | --- | --- | --- | --- | --- | --- | --- | --- | --- | --- |
| Cc1ccc(-n2nc(C(C)(C)C)cc2NC(=O)Nc2ccc(OCCN3CCOCC3)c3ccccc23)cc1 [Doramapimod/BIRB796] | promote desirable CAR T cell phenotypes in vitro | – | – | – | – | – | – | – | – | – | – | – | – | – | – |
| CC(C)(C)Cn1c(N)nc2ccc(-c3[nH]c(C(C)(C)C)nc3-c3ccc(F)cc3)nc21 [Ralimetinib, 5-[2-tert-Butyl-4-(4-fluorophenyl)-1H-imidazol-5-yl]-3-(2,2-dimethylpropyl)imidazo[4,5-b]pyridin-2-amine] | – | reduce | reduce | reduced | (albeit non-significant) downward trend | maintain CAR T cell proliferation | significantly reduce | significantly reduce | reduced, albeit non-significantly | reduced | significantly reduce | reduced | reduced | maintain CAR T cell-induced cancer cell death | significantly reduce |
| Cc1ccc(C(=O)NC2CC2)cc1-n1ncc(C(=O)c2cccc(C#N)c2)c1N [Acumapimod, 3-[5-amino-4-(3-cyanobenzoyl)pyrazol-1-yl]-N-cyclopropyl-4-methylbenzamide] | – | reduce | reduce | reduced | (albeit non-significant) downward trend | maintain CAR T cell proliferation | significantly reduce | significantly reduce | reduced, albeit non-significantly | reduced | significantly reduce | reduced | reduced | maintain CAR T cell-induced cancer cell death | significantly reduce |

— patent publication US20260115177A1, “MEDICINAL PRODUCTS AND METHODS FOR THE ALLEVIATION OF CANCER IMMUNOTHERA-PY-ASSOCIATED CYTOKINE RELEASE SYNDROME” (POOLBEG PHARMA (UK) LIMITED, priority 2023, published 2026)
